What all share (assay type): biochemical
Assay [1] deals with MAGL (Homo sapiens (Human), UniProt Q99685). Put plainly: In vitro competitive activity-based protein profiling, MAGL (human). Particulars: human proteome; for inhibition at 1 µM: read-out: MAGL % inh. 1 μM (human). Here is the method: (§1) In Vitro Competitive Activity-Based Protein Profiling.
(§2) Proteomes (mouse brain membrane fraction or cell lysates for mouse assays; human prefrontal cortex or cell membrane fractions for human assays) (50 μL, 1.0 mg/mL total protein concentration) were preincubated with varying concentrations of inhibitors at 37° C. After 30 min, FP—Rh or HT-01 (1.0 μL, 50 μM in DMSO) was added and the mixture was incubated for another 30 min at 37° C. Reactions were quenched with SDS loading buffer (15 μL-4×) and run on SDS-PAGE. Following gel imaging, serine hydrolase activity was determined by measuring fluorescent intensity of gel bands corresponding to MAGL and FAAH using ImageJ 1.43u software.

Assay [2] has as its target FAAH (Homo sapiens (Human), UniProt O00519). Put plainly: In vitro competitive activity-based protein profiling, FAAH (human). Particulars: human proteome; for inhibition at 1 µM: read-out: FAAH % inh. 1 μM (human). The protocol: as §1, §2
Assay [3] concerns the target MAGL (Mus musculus (Mouse), UniProt O35678). Put plainly: In vitro competitive activity-based protein profiling, MAGL (mouse). Particulars: for inhibition at 1 µM: read-out: MAGL % inh. 1 μM (mouse). The method in brief: (§3)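 Competitive ABPP; proteome 1.0 mg/mL total protein; mouse = brain membranes or cell lysates, human = prefrontal cortex or cell membranes. Inhibitor preinc 30 min, 37° C; FP-Rh/HT-01 (50 μM DMSO stock) 30 min, 37° C; SDS-PAGE, in-gel fluorescence of MAGL/FAAH bands.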

Assay [4] has as its target FAAH (Mus musculus (Mouse), UniProt O08914). The assay is described as follows: In vitro competitive activity-based protein profiling, FAAH (mouse). The conditions noted are these: for inhibition at 1 µM: read-out: FAAH % inh. 1 μM (mouse). The method in brief:
as §3

FAAH (Homo sapiens (Human), UniProt O00519), sequence (O00519 whole entry): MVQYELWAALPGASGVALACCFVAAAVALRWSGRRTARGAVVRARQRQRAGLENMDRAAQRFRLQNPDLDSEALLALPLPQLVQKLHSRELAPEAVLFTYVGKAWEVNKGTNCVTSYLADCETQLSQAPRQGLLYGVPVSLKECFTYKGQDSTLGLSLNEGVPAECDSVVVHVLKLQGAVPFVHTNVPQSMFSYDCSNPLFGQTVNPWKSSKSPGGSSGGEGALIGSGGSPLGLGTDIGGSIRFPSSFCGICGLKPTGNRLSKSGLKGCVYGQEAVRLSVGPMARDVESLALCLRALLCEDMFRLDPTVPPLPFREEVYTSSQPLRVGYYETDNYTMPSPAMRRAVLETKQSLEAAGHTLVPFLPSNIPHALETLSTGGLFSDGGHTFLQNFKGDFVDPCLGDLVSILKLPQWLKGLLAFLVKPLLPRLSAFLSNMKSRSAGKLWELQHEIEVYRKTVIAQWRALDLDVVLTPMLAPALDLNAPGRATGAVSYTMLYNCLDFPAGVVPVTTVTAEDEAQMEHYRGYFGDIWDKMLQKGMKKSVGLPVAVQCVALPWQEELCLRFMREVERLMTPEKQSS
MAGL (Homo sapiens (Human), UniProt Q99685), sequence (Q99685 whole entry): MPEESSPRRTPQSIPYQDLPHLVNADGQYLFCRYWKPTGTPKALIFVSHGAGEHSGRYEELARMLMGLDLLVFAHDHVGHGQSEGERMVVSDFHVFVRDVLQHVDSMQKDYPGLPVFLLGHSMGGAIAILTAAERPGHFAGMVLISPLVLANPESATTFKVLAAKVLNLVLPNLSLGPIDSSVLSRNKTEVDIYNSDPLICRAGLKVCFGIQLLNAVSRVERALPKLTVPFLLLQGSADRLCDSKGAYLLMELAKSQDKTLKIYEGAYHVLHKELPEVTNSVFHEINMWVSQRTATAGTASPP
FAAH (Mus musculus (Mouse), UniProt O08914), sequence (O08914 whole entry): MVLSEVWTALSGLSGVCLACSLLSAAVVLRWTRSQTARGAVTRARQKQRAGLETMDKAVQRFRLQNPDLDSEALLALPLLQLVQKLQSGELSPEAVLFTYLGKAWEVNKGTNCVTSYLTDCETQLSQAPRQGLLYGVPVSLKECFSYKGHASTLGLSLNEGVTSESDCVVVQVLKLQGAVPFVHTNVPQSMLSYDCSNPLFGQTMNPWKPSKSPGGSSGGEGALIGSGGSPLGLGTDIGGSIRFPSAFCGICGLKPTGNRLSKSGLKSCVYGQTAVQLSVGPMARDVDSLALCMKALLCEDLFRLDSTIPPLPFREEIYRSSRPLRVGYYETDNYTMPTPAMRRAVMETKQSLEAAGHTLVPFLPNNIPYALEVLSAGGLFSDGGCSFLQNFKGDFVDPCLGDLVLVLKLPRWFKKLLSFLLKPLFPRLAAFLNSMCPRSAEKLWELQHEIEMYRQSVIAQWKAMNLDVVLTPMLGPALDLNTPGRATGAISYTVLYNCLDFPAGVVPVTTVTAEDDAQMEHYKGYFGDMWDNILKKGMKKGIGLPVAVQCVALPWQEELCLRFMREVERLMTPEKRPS
MAGL (Mus musculus (Mouse), UniProt O35678), sequence (O35678 whole entry): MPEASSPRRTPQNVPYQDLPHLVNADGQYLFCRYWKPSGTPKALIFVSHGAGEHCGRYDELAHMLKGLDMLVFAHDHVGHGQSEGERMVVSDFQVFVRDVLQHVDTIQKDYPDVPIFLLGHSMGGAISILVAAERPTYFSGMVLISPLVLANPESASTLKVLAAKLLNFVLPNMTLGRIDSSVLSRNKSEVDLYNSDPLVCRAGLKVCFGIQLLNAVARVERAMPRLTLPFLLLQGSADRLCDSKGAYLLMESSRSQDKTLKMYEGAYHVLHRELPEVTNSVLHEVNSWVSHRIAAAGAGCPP

`CS(=O)(=O)Nc1cnn(C(=O)N2CCC3(CCN(Cc4ccc(Cl)c(Cl)c4)C3)C2)c1` (stereo not drawn) [Example 283, N-(1-(7-(3,4-dichlorobenzyl)-2,7-diazaspiro[4.4]nonane-2-carbonyl)-1H-pyrazol-4-yl)methanesulfonamide]: the inhibition at 1 µM at MAGL [1] and on FAAH [2] was at least 75% in each case.
In the case of `CS(=O)(=O)Nc1cnn(C(=O)N2CCC3(CCN(Cc4ccc(N5CCCC5)cc4C(F)(F)F)C3)C2)c1` (stereo not drawn) [Example 285, N-(1-(7-(4-(pyrrolidin-1-yl)-2-(trifluoromethyl)benzyl)-2,7-diazaspiro[4.4]nonane-2-carbonyl)-1H-pyrazol-4-yl)methanesulfonamide], the inhibition at 1 µM on MAGL [1] and on FAAH [2] was at least 75% in each case.
For `CS(=O)(=O)Nc1cnn(C(=O)N2CCC3(CCN(Cc4cc(Cl)cc(C(F)(F)F)c4)C3)C2)c1` (stereo not drawn) [Example 286, N-(1-(7-(3-chloro-5-(trifluoromethyl)benzyl)-2,7-diazaspiro[4.4]nonane-2-carbonyl)-1H-pyrazol-4-yl)methanesulfonamide], the inhibition at 1 µM at MAGL [3] (1 μM) was 25 to 50%; at FAAH [4] (1 μM) it was at least 75%.
Taken in the same sequence, the figures for `CS(=O)(=O)Nc1cnn(C(=O)N2CCC3(CCN(Cc4ccc(-c5nccs5)cc4Cl)C3)C2)c1` (stereo not drawn) [Example 287, N-(1-(7-(2-chloro-4-(thiazol-2-yl)benzyl)-2,7-diazaspiro[4.4]nonane-2-carbonyl)-1H-pyrazol-4-yl)methanesulfonamide] were 50 to 75% and at least 75%.
For `CS(=O)(=O)Nc1cnn(C(=O)N2CCC3(CCN(Cc4cccc(Cl)c4Cl)C3)C2)c1` (stereo not drawn) [Example 288, N-(1-(7-(2,3-dichlorobenzyl)-2,7-diazaspiro[4.4]nonane-2-carbonyl)-1H-pyrazol-4-yl)methanesulfonamide], the inhibition at 1 µM on MAGL [1] and on FAAH [2] was at least 75% throughout.
As to `CS(=O)(=O)Nc1cnn(C(=O)N2CCN(Cc3ccc(-c4cnccn4)cc3C(F)(F)F)CC2)c1` [Example 289, N-(1-(4-(4-(pyrazin-2-yl)-2-(trifluoromethyl)benzyl)piperazine-1-carbonyl)-1H-pyrazol-4-yl)methanesulfonamide], the values for the inhibition at 1 µM at MAGL [3] (1 μM) and on FAAH [4] (1 μM) were 25 to 50% and at least 75%, respectively.
Consider `CS(=O)(=O)Nc1cnn(C(=O)N2CCN(Cc3ccc(-c4cncnc4)cc3C(F)(F)F)CC2)c1` [Example 290, N-(1-(4-(4-(pyrimidin-5-yl)-2-(trifluoromethyl)benzy1)piperazine-1-carbonyl)-1H-pyrazol-4-yl)methanesulfonamide], for which the inhibition at 1 µM at MAGL [1] and on FAAH [2] was at least 75% in each case.
Take `CS(=O)(=O)Nc1cnn(C(=O)N2CCN(Cc3ccc(-c4nccs4)cc3C(F)(F)F)CC2)c1` [Example 291, N-(1-(4-(4-(thiazol-2-yl)-2-(trifluoromethyl)benzyl)piperazine-1-carbonyl)-1H-pyrazol-4-yl)methanesulfonamide]: the inhibition at 1 µM is 50 to 75% at MAGL [3] (1 μM) and at least 75% on FAAH [4] (1 μM).
In general, IC50 refers to the point on the concentration scale where inhibition reaches its midpoint. Take `CS(=O)(=O)Nc1cnn(C(=O)N2CCN(Cc3cc(Cl)ccc3C(F)(F)F)CC2)c1` [Example 293, N-(1-(4-(5-chloro-2-(trifluoromethyl)benzyl)piperazine-1-carbonyl)-1H-pyrazol-4-yl)methanesulfonamide]: the IC50 on MAGL [3] was at most 100 nM; on FAAH [4], 1000 to 10000 nM. For the same molecule, the inhibition at 1 µM was 50 to 75% on MAGL [3] (1 μM) and at least 75% at FAAH [4] (1 μM).
In the case of `CS(=O)(=O)Nc1cnn(C(=O)N2CCN(Cc3cc(Cl)cc(C(F)(F)F)c3)CC2)c1` [Example 294, N-(1-(4-(3-chloro-5-(trifluoromethyl)benzyl)piperazine-1-carbonyl)-1H-pyrazol-4-yl)methanesulfonamide], the inhibition at 1 µM at MAGL [3] (1 μM) and on FAAH [4] (1 μM) was at least 75% throughout.
Turning to `CS(=O)(=O)Nc1cnn(C(=O)N2CCN(Cc3cc(N4CCCC4)cc(C(F)(F)F)c3)CC2)c1` [Example 295, N-(1-(4-(3-(pyrrolidin-1-yl)-5-(trifluoromethyl)benzyl)piperazine-1-carbonyl)-1H-pyrazol-4-yl)methanesulfonamide], the inhibition at 1 µM on MAGL [3] (1 μM) and on FAAH [4] (1 μM) was at least 75% throughout.
Regarding `CS(=O)(=O)Nc1cnn(C(=O)N2CCN(Cc3cccc(Oc4ccc(Cl)cc4)c3)CC2)c1` [Example 296, N-(1-(4-(3-(4-chlorophenoxy)benzyl)piperazine-1-carbonyl)-1H-pyrazol-4-yl)methanesulfonamide], the inhibition at 1 µM at MAGL [3] (1 μM) and at FAAH [4] (1 μM) was at least 75% in each case.
Take `CS(=O)(=O)Nc1cnn(C(=O)N2CCC3(CCN(Cc4ccc(N5CCCC5)c(Cl)c4)C3)CC2)c1` [Example 298, N-(1-(2-(3-chloro-4-(pyrrolidin-1-yl)benzyl)-2,8-diazaspiro[4.5]|decane-8-carbonyl)-1H-pyrazol-4-yl)methanesulfonamide]: the inhibition at 1 µM at MAGL [1] and on FAAH [2] was at least 75% each time.
With `CN(Cc1ccccc1C(F)(F)F)[C@H]1C[C@@H]2CN(C(=O)n3cc(NS(C)(=O)=O)cn3)C[C@@H]2C1` [Example 299, N-(1-(trans-5-(methyl(2-(trifluoromethyl)benzyl)amino)octahydrocyclopenta[c]pyrrole-2-carbonyl)-1H-pyrazol-4-yl)methanesulfonamide], the inhibition at 1 µM on MAGL [3] (1 μM) and at FAAH [4] (1 μM) was at least 75% throughout.
Turning to `CN(Cc1ccccc1C(F)(F)F)[C@@H]1C[C@@H]2CN(C(=O)n3cc(NS(C)(=O)=O)cn3)C[C@@H]2C1` [Example 300, N-(1-(cis-5-(methyl(2-(trifluoromethyl)benzyl)amino)octahydrocyclopenta[c]pyrrole-2-carbonyl)-1H-pyrazol-4-yl)methanesulfonamide], the inhibition at 1 µM on MAGL [1] and at FAAH [2] was at least 75% throughout.
As for `CS(=O)(=O)Nc1cnn(C(=O)N2CCN(Cc3ccc(-c4ccc(C(F)(F)F)nc4)cc3C(F)(F)F)CC2)c1` [Example 301, N-(1-(4-(2-(trifluoromethyl)-4-(6-(trifluoromethyl)pyridin-3-yl)benzyl)piperazine-1-carbonyl)-1H-pyrazol-4-yl)methanesulfonamide], the inhibition at 10 µM was at least 75% on MAGL [1] (10 μM, read-out: MAGL % inh. 10 μM (human)) and at least 75% on FAAH [2] (10 μM, read-out: FAAH % inh. 10 μM (human)).
For `CS(=O)(=O)Nc1cnn(C(=O)N2CCN(Cc3ccc(-c4ccc(C(N)=O)nc4)cc3C(F)(F)F)CC2)c1` [Example 302], the figures for the inhibition at 1 µM at MAGL [3] (1 μM) and at FAAH [4] (1 μM) were 25 to 50% and at least 75%, respectively.
For the molecule `CS(=O)(=O)Nc1cnn(C(=O)N2CCN(Cc3ccc(-c4ncco4)cc3C(F)(F)F)CC2)c1` [Example 303, N-(1-(4-(4-(oxazol-2-yl)-2-(trifluoromethyl)benzy)piperazine-1-carbonyl)-1H-pyrazol-4-yl)methanesulfonamide], the IC50 at MAGL [3] is at most 100 nM; at FAAH [4], 1000 to 10000 nM. Besides, the inhibition at 1 µM at MAGL [3] (1 μM) was 50 to 75%; on FAAH [4] (1 μM), at least 75%.
As to `Cc1noc(-c2ccc(CN3CCN(C(=O)n4cc(NS(C)(=O)=O)cn4)CC3)c(C(F)(F)F)c2)n1` [Example 307, N-(1-(4-(4-(3-methyl-1,2,4-oxadiazol-5-yl)-2-(trifluoromethyl)benzyl)piperazine-1-carbonyl)-1H-pyrazol-4-yl)methanesulfonamide], the inhibition at 1 µM on MAGL [3] (1 μM) was 25 to 50%; at FAAH [4] (1 μM) it was at least 75%.
As for `CS(=O)(=O)Nc1cnn(C(=O)N2CCN(Cc3ccc(-c4ccncn4)cc3C(F)(F)F)CC2)c1` [Example 309, N-(1-(4-(4-(pyrimidin-4-yl)-2-(trifluoromethyl)benzyl)piperazine-1-carbonyl)-1H-pyrazol-4-yl)methanesulfonamide], the inhibition at 1 µM on MAGL [3] (1 μM) is 25 to 50%; at FAAH [4] (1 μM) it was at least 75%.
Regarding `CC(=O)Nc1cnn(C(=O)N2CCN(Cc3cc(Cl)ccc3C(F)(F)F)CC2)c1` [Example 314, N-(1-(4-(5-chloro-2-(trifluoromethyl)benzyl)piperazine-1-carbonyl)-1H-pyrazol-4-yl)acetamide], the inhibition at 1 µM on MAGL [3] (1 μM) and at FAAH [4] (1 μM) was at least 75% throughout.
As for `CC(=O)Nc1cnn(C(=O)N2CC3CN(Cc4cc(Cl)cc(C(F)(F)F)c4)CC3C2)c1` (stereo not drawn) [Example 315, N-(1-(5-(3-chloro-5-(trifluoromethyl)benzyl)octahydropyrrolo [3,4-c]pyrrole-2-carbonyl)-1H-pyrazol-4-yl)acetamide], the inhibition at 1 µM on MAGL [3] (1 μM) and on FAAH [4] (1 μM) was at least 75% each time.
`C#Cc1ccc(CN2CCN(C(=O)n3cc(N(C)C(C)=O)cn3)CC2)cc1` [Example 317, N-(1-(4-(4-ethynylbenzyl)piperazine-1-carbonyl)-1H-pyrazol-4-yl)-N-methylacetamide]: the inhibition at 1 µM at MAGL [3] (1 μM) and on FAAH [4] (1 μM) was at least 75% each time.
Consider “N-(1-(5-(3-(4- methoxyphenoxy)benzyl) octahydropyrrolo[3,4-c]pyrrole-2- carbonyl)-1H-pyrazol-4-yl)-N- methylacetamide [Example 243]”, for which the IC50 at MAGL [3] and at FAAH [4] was at most 100 nM throughout. At MAGL [3] (1 μM), the “MAGL % inh. 1 μM (mouse)” value was “A (A = % inhibition greater than or equal to 75%)”. For the same molecule, the “FAAH % inh. 1 μM (mouse)” value on FAAH [4] (1 μM) was “A (A = % inhibition greater than or equal to 75%)”.
